From US20090062120A1, “Agrochemical Composition” (priority 2005, published 2009)

Key:
[1] = assay type: physicochemical; conditions: for External appearance of dilution [5% in water] / Crystal formation in dilution [5% in water; 24 hours, 30° C.] / External appearance of dilution [5% in water; 24 hours, 30° C.] / External appearance of formulation [25° C.; on day of preparation] / External appearance of formulation [after 48 hours at 0° C.]: 2,4-D isopropylamine salt 300 g/l; for External appearance of dilution [5% in water] / Crystal formation in dilution [5% in water; 24 hours, 30° C.] / External appearance of dilution [5% in water; 24 hours, 30° C.]: solvent 5% by volume; for External appearance of dilution [5% in water]: 5% (v/v) dilution in water, 500 ppm CaCO3; for Crystal formation in dilution [5% in water; 24 hours, 30° C.] / External appearance of dilution [5% in water; 24 hours, 30° C.]: 5% dilution in water; for External appearance of formulation [25° C.; on day of preparation] / External appearance of formulation [after 48 hours at 0° C.]: solvent addition 5% by volume
Excerpt: In the form of its amine salts, 2,4-dichlorophenoxyacetic acid tends to crystallize out of concentrated solutions. It is state of the art to use an approximately 5% addition of NMP in order to prevent crystallization. In the present example the isopropylamine salt of 2,4-dichlorophenoxyacetic acid was used, 2,4-D IPA for short.
Concentrated aqueous solutions of 2,4-D in isopropylamine salt form (350 g/l) were admixed with quantities of demineralized water and of the corresponding solvent addition such that the concentration of 2,4-D isopropylamine salt was 300 g/l and that of the solvent under test was 5% v/v. Then the external appearance, instantaneously (see column 2 of Table 5) and after storage at 0° C. […] Particular emphasis was placed on any crystal formation.

[2] = cited from earlier work
[3] = Solubilities of active agrochemical substances in acetylcaprolactam
[4] = Dissolution of tebuconazole in standard aromatic solvents alone; assay type: physicochemical; conditions: exclusive use of Solvesso 150 or Solvesso 200, without acetylcaprolactam; 250 g/l
Excerpt: A corresponding formulation using these solvents alone, therefore, cannot be prepared.

Structure (SMILES) | External appearance of dilution [5% in water] [1] | Crystal formation in dilution [5% in water; 24 hours, 30° C.] [1] | External appearance of dilution [5% in water; 24 hours, 30° C.] [1] | External appearance of formulation [25° C.; on day of preparation] [1] | External appearance of formulation [after 48 hours at 0° C.] [1] | Behavior compared with NMP [1] | Toxic effect observed in animal experiments [2] | Solubility (% by wt.) at 25° C. [3] | Dissolution at the concentration specified in Example 4 [4]
CCCCCCCCCC(=O)N(C)C [Genagen 4296, N,N-dimethylcapramide] | turbid | <1% | sample separated, | clear solution | clear solution | – | – | – | –
CN1CCCC1=O [N-Methylpyrrolidone, N-Methyl-2-pyrrolidone] | clear | no crystals | clear solution, | clear solution | clear solution | – | developmentally toxic effect | – | –
CC(=O)N1CCCCCC1=O [Peractive LAC, acetylcaprolactam] | clear | no crystals | clear solution, | clear solution | clear solution | closest to NMP | – | – | –
CCC(CC)Nc1c([N+](=O)[O-])cc(C)c(C)c1[N+](=O)[O-] [pendimethalin, N-(1-ethylpropyl)-3,4-dimethyl-2,6-dinitrophenylamine] | – | – | – | – | – | – | – | 60-65 % by wt. | –
COC(=O)Nc1cccc(OC(=O)Nc2cccc(C)c2)c1 [phenmedipham] | – | – | – | – | – | – | – | 15-20 % by wt. | –
CC(C)(C)C(O)(CCc1ccc(Cl)cc1)Cn1cncn1 (stereo not drawn) [tebuconazole, R,S-1-p-chlorophenyl-4,4-dimethyl-3-(1H-1,2,4-triazol-1-yl-methyl)pentan-3-ol] | – | – | – | – | – | – | – | – | cannot be dissolved completely
O=CNC(N1CCN(C(NC=O)C(Cl)(Cl)Cl)CC1)C(Cl)(Cl)Cl (stereo not drawn) [triforine, N,N′-[1,4-piperazinediylbis(2,2,2-trichloroethylidene)]bis-formamide] | – | – | – | – | – | – | – | 15-20 % by wt. | –

Now from value to compound, other results behind:

External appearance of dilution [5% in water] [1] | Crystal formation in dilution [5% in water; 24 hours, 30° C.] [1] | External appearance of dilution [5% in water; 24 hours, 30° C.] [1] | External appearance of formulation [25° C.; on day of preparation] [1] | External appearance of formulation [after 48 hours at 0° C.] [1] | Behavior compared with NMP [1] | Structure (SMILES) | Toxic effect observed in animal experiments [2] | Solubility (% by wt.) at 25° C. [3] | Dissolution at the concentration specified in Example 4 [4]
clear | <1% | clear solution, | clear solution | clear solution | – | COCC(C)OCC(C)OC (stereo not drawn) [Dipropylene glycol dimethyl ether] | – | – | –
clear | <1% | clear solution, | clear solution | clear solution | – | COCCOCCOCCOCCOC [Tetraethylene glycol dimethyl ether] | – | – | –
clear | >1% | clear solution, | clear solution | clear solution | – | COCCOCCOCCOC [Triethylene glycol dimethyl ether] | – | – | –
